# Experiments:
# Type in all cases: in vivo
# [1] = tested on: windgrass (Apera spica-venti); test: Test B postemergence plant response; details: Postemergence; for Plant response rating, Windgrass: scale 0 (no effect) to 100 (complete control)
# Summary of the method: (§1)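 Plants at the 1- to 4-leaf stage (2 to 18 cm tall), grown in pots of peat moss/vermiculite medium with wetting agent and starter nutrients, received postemergence applications of test chemicals. After 13 to 15 days in a greenhouse, injury was rated visually against untreated controls on a 0 (no effect) to 100 (complete control) scale.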
# [2] = tested on: chickweed (Stellaria media); test: Test B postemergence plant response; details: Postemergence
# Summary of the method: as §1
# [3] = tested on: canarygrass (Phalaris minor); test: Test B postemergence plant response; details: Postemergence
# Summary of the method: as §1
# [4] = tested on: blackgrass (Alopecurus myosuroides); test: Test B pre-/postemergence plant response
# Summary of the method: (§2)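 Visually scored on a 0 to 100 scale after 13 to 15 days in greenhouse versus controls. Treatments were preemergence on seeded loam/sand soil and postemergence on 1- to 4-leaf plants.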
# [5] = tested on: cocklebur (Xanthium strumarium); test: Test B pre-/postemergence plant response
# Summary of the method: as §2
# [6] = tested on: velvetleaf (Abutilon theophrasti); test: Test B pre-/postemergence plant response
# Summary of the method: as §2
# [7] = tested on: ragweed (common ragweed, Ambrosia elatior); test: Test B pre-/postemergence plant response
# Summary of the method: as §2
# [8] = tested on: wild oat (Avena fatua); test: Test B pre-/postemergence plant response
# Summary of the method: as §2
# [9] = tested on: downy bromegrass (Bromus tectorum); test: Test B pre-/postemergence plant response
# Summary of the method: as §2
# [10] = tested on: wheat (Triticum aestivum); test: Test B pre-/postemergence plant response
# Summary of the method: as §2
# [11] = tested on: johnsongrass (Sorghum halepense); test: Test B pre-/postemergence plant response
# Summary of the method: as §2
# [12] = tested on: kochia (Kochia scoparia); test: Test B pre-/postemergence plant response; details: Preemergence
# Summary of the method: as §2
# [13] = tested on: bermudagrass (Cynodon dactylon); test: Test B pre-/postemergence plant response
# Summary of the method: as §2
# [14] = tested on: green foxtail (Setaria viridis); test: Test B pre-/postemergence plant response
# Summary of the method: as §2
# [15] = tested on: morningglory (Ipomoea coccinea); test: Test B pre-/postemergence plant response
# Summary of the method: as §2
# [16] = tested on: soybean (Glycine max); test: Test B pre-/postemergence plant response
# Summary of the method: as §2
# [17] = tested on: yellow nutsedge (Cyperus esculentus); test: Test B pre-/postemergence plant response
# Summary of the method: as §2
# [18] = tested on: giant foxtail (Setaria faberii); test: Test B pre-/postemergence plant response
# Summary of the method: as §2
# [19] = 31 g ai/ha, scale 0 to 100 (0 no effect, 100 complete control)
# [20] = 62 g ai/ha, scale 0 (no effect) to 100 (complete control), 13 to 15 days
# [21] = 125 g ai/ha, visual rating after 13 to 15 days, scale 0 (no effect) to 100 (complete control)
# [22] = 250 g ai/ha, Preemergence, 0 to 100 scale
# [23] = Postemergence, 31 g ai/ha, scale 0 to 100 (0 no effect, 100 complete control)
# [24] = Postemergence, 62 g ai/ha, scale 0 (no effect) to 100 (complete control), 13 to 15 days
# [25] = Postemergence, 125 g ai/ha, visual rating after 13 to 15 days, scale 0 (no effect) to 100 (complete control)
# [26] = Postemergence, 250 g ai/ha, scale 0 to 100
# [27] = Preemergence, 31 g ai/ha, scale 0 to 100 (0 no effect, 100 complete control)
# [28] = Preemergence, 62 g ai/ha, scale 0 to 100, 0 no effect, 100 complete control
# [29] = Preemergence, 125 g ai/ha, 0 to 100 scale
smiles,measurement,setting,value
Cc1ccc(C)c(-n2c(-c3ccccc3)ncc(C(=O)C3=C(O)CCCC3=O)c2=O)c1 [Compound 29],"Plant response rating, Windgrass","[1]; 62 g ai/ha, 13 to 15 days",10
same,"Plant response rating, Windgrass","[1]; 125 g ai/ha, visual rating after 13 to 15 days",30
same,Windgrass plant response rating,"[1]; 250 g ai/ha, scale 0 to 100",50
same,"Plant response rating, Chickweed",[2]; [19],50
same,"Plant response rating, Chickweed",[2]; [20],50
same,"Plant response rating, Chickweed",[2]; [21],50
same,Chickweed plant response rating,"[2]; 250 g ai/ha, scale 0 to 100",85
same,"Plant response rating, Canarygrass",[3]; [19],10
same,"Plant response rating, Canarygrass",[3]; [20],20
same,"Plant response rating, Canarygrass",[3]; [21],40
same,Canarygrass plant response rating,"[3]; 250 g ai/ha, scale 0 to 100",40
same,"Plant response rating, Blackgrass",[4]; [22],50
same,"Plant response rating, Blackgrass",[4]; [23],10
same,"Plant response rating, Blackgrass",[4]; [24],20
same,"Plant response rating, Blackgrass",[4]; [25],40
same,Blackgrass plant response rating,[4]; [26],50
same,"Plant response rating, Blackgrass",[4]; [27],5
same,"Plant response rating, Blackgrass",[4]; [28],5
same,Blackgrass plant response rating,[4]; [29],50
same,"Plant response rating, Cocklebur",[5]; [22],90
same,"Plant response rating, Cocklebur",[5]; [23],85
same,"Plant response rating, Cocklebur",[5]; [24],95
same,"Plant response rating, Cocklebur",[5]; [25],95
same,Cocklebur plant response rating,[5]; [26],98
same,"Plant response rating, Cocklebur",[5]; [27],5
same,"Plant response rating, Cocklebur",[5]; [28],80
same,Cocklebur plant response rating,[5]; [29],90
same,"Plant response rating, Velvetleaf",[6]; [22],100
same,"Plant response rating, Velvetleaf",[6]; [24],55
same,"Plant response rating, Velvetleaf",[6]; [25],80
same,Velvetleaf plant response rating,[6]; [26],98
same,"Plant response rating, Velvetleaf",[6]; [27],10
same,"Plant response rating, Velvetleaf",[6]; [28],90
same,Velvetleaf plant response rating,[6]; [29],100
same,"Plant response rating, Ragweed",[7]; [22],100
same,"Plant response rating, Ragweed",[7]; [24],85
same,"Plant response rating, Ragweed",[7]; [25],100
same,Ragweed plant response rating,[7]; [26],100
same,"Plant response rating, Ragweed",[7]; [27],80
same,"Plant response rating, Ragweed",[7]; [28],90
same,Ragweed plant response rating,[7]; [29],100
same,"Plant response rating, Oat, Wild",[8]; [22],50
same,"Plant response rating, Oat, Wild",[8]; [24],50
same,"Plant response rating, Oat, Wild",[8]; [25],60
same,"Oat, Wild plant response rating",[8]; [26],80
same,"Plant response rating, Oat, Wild",[8]; [27],0
same,"Plant response rating, Oat, Wild",[8]; [28],0
same,"Oat, Wild plant response rating",[8]; [29],45
same,"Plant response rating, Bromegrass, Downy",[9]; [22],5
same,"Plant response rating, Bromegrass, Downy",[9]; [23],5
same,"Plant response rating, Bromegrass, Downy",[9]; [24],10
same,"Plant response rating, Bromegrass, Downy",[9]; [25],40
same,"Bromegrass, Downy plant response rating",[9]; [26],45
same,"Plant response rating, Bromegrass, Downy",[9]; [27],0
same,"Plant response rating, Bromegrass, Downy",[9]; [28],0
same,"Bromegrass, Downy plant response rating",[9]; [29],0
same,"Plant response rating, Wheat",[10]; [22],0
same,"Plant response rating, Wheat",[10]; [24],0
same,"Plant response rating, Wheat",[10]; [25],10
same,Wheat plant response rating,[10]; [26],40
same,"Plant response rating, Wheat",[10]; [27],0
same,"Plant response rating, Wheat",[10]; [28],0
same,Wheat plant response rating,[10]; [29],0
same,"Plant response rating, Johnsongrass",[11]; [22],90
same,"Plant response rating, Johnsongrass",[11]; [24],20
same,"Plant response rating, Johnsongrass",[11]; [25],40
same,Johnsongrass plant response rating,[11]; [26],45
same,"Plant response rating, Johnsongrass",[11]; [27],0
same,"Plant response rating, Johnsongrass",[11]; [28],5
same,Johnsongrass plant response rating,[11]; [29],30
same,"Plant response rating, Kochia","[12]; 250 g ai/ha, 0 to 100 scale",100
same,"Plant response rating, Kochia",[12]; [19],98
same,"Plant response rating, Kochia","[12]; 62 g ai/ha, scale 0 to 100, 0 no effect, 100 complete control",100
same,Kochia plant response rating,"[12]; 125 g ai/ha, 0 to 100 scale",100
same,"Plant response rating, Bermudagrass",[13]; [22],100
same,"Plant response rating, Bermudagrass",[13]; [23],85
same,"Plant response rating, Bermudagrass",[13]; [24],90
same,"Plant response rating, Bermudagrass",[13]; [25],90
same,Bermudagrass plant response rating,[13]; [26],100
same,"Plant response rating, Bermudagrass",[13]; [27],98
same,"Plant response rating, Bermudagrass",[13]; [28],100
same,Bermudagrass plant response rating,[13]; [29],100
same,"Plant response rating, Foxtail, Green",[14]; [22],100
same,"Plant response rating, Foxtail, Green",[14]; [23],60
same,"Plant response rating, Foxtail, Green",[14]; [24],75
same,"Plant response rating, Foxtail, Green",[14]; [25],75
same,"Foxtail, Green plant response rating",[14]; [26],90
same,"Plant response rating, Foxtail, Green",[14]; [27],0
same,"Plant response rating, Foxtail, Green",[14]; [28],40
same,"Foxtail, Green plant response rating",[14]; [29],100
same,"Plant response rating, Morningglory",[15]; [22],100
same,"Plant response rating, Morningglory",[15]; [24],70
same,"Plant response rating, Morningglory",[15]; [25],80
same,Morningglory plant response rating,[15]; [26],98
same,"Plant response rating, Morningglory",[15]; [27],100
same,"Plant response rating, Morningglory",[15]; [28],100
same,Morningglory plant response rating,[15]; [29],100
same,"Plant response rating, Soybean",[16]; [22],95
same,"Plant response rating, Soybean",[16]; [24],95
same,"Plant response rating, Soybean",[16]; [25],98
same,Soybean plant response rating,[16]; [26],98
same,"Plant response rating, Soybean",[16]; [27],20
same,"Plant response rating, Soybean",[16]; [28],85
same,Soybean plant response rating,[16]; [29],90
same,"Plant response rating, Nutsedge, Yellow",[17]; [22],85
same,"Plant response rating, Nutsedge, Yellow",[17]; [24],50
same,"Plant response rating, Nutsedge, Yellow",[17]; [25],70
same,"Nutsedge, Yellow plant response rating",[17]; [26],70
same,"Plant response rating, Nutsedge, Yellow",[17]; [27],0
same,"Plant response rating, Nutsedge, Yellow",[17]; [28],30
same,"Nutsedge, Yellow plant response rating",[17]; [29],60
same,"Plant response rating, Foxtail, Giant",[18]; [22],100
same,"Plant response rating, Foxtail, Giant",[18]; [23],80
same,"Plant response rating, Foxtail, Giant",[18]; [24],90
same,"Plant response rating, Foxtail, Giant",[18]; [25],90
same,"Foxtail, Giant plant response rating",[18]; [26],95
same,"Plant response rating, Foxtail, Giant",[18]; [27],10
same,"Plant response rating, Foxtail, Giant",[18]; [28],50
same,"Foxtail, Giant plant response rating",[18]; [29],100
